Columns and labels:
[1] = test system: DU145 cells; experiment: [3H] thymidine incorporation assay; format: cell-based, human
Method: (§1) DU145 (1.5×10^5/well), PC-3 (1.0×10^5/well) and LNCaP-FGC (2.0×10^5/well) cells were seeded into 24-well plates 24 hours before serum-starvation. Cells were deprived of serum for 48 hours, followed by incubation with leptin at indicated concentrations or 100 ng/ml IL-6 for 20 hours. In some experiments, cells were pretreated with SP600125 prior to cytokine stimulation as described below. Cells in each well were pulsed with 1 μCi of [^3H] thymidine (Amersham Pharmacia Biotech Inc., Piscataway, N.J., USA) during the final 5 hours, washed once with PBS, fixed with cold 5% trichloroacetic acid, solubilized with 0.25 M NaOH, and counted in scintillant. Each experiment was performed in quadruplicate, and the values are reported as mean±SD.
(§2) SP600125 was dissolved in DMSO to make a stock solution. Eighty-percent confluent prostate cancer cells were serum-starved for 24 hours and pretreated with SP600125 at indicated concentrations for 30 minutes, followed by leptin treatment (12.5 μg/ml): 15 minutes for Western blot analysis or 20 hours for thymidine incorporation assays. DMSO-treated cells were employed as controls.

[2] = test system: PC-3 cells; experiment: [3H] thymidine incorporation assay; format: cell-based, human
Method: as §1, §2

[3] = test system: LNCaP-FGC cells; experiment: [3H] thymidine incorporation assay; format: cell-based, human
Method: as §1

[4] = test system: JNK; experiment: In vitro JNK assay on lysates of treated human cancer cells; format: cell-based
Method: Eighty-percent confluent prostate cancer cells were starved in the serum-free medium for 24 hours and then treated by 12.5 μg/ml leptin or 10 μg/ml anisomycin for the indicated periods. In some experiments, cells were pretreated with SP600125 prior to cytokine stimulation as described below. Cells were washed twice with cold PBS, harvested by a scraper and centrifuged for 10 minutes at 700×g at 4° C. The pellet was homogenized in the cell lysis buffer (20 mM HEPES, pH 7.9, 300 mM NaCl, 1 mM EDTA, 15% glycerol, 0.5% NP-40, 1 mM Na3VO4, 1 μg/ml leupeptin, 5 μg/ml aprotinin, 1 μg/ml pepstatin and 1 mM PMSF) and incubated at 4° C. with gentle rocking for 30 minutes. This homogenate was centrifuged for 5 minutes at 15,000×g, and the supernatant was saved as a cell lysate and stored at −80° C. until use.
JNK activity was measured using the SAPK/JNK Assay Kit (Cell Signaling Technology Inc.) according to the manufacture's instructions. Briefly, JNK was precipitated in 250 μl of cell lysates (250 μg protein) with 2 μg of glutathione Sepharose beads immobilized by a recombinant fusion protein of the c-Jun N-terminus (1-89) and glutathione S-transferase as a JNK substrate. After being washed with the cell lysis buffer 3 times, the precipitates were incubated in 50 μl of the kinase buffer containing 100 μM ATP at 30° C. for 30 minutes. The reaction was stopped by addition of the SDS sample buffer. The N-terminal c-Jun (1-89) fusion protein was separated by SDS-polyacrylamide gel electrophoresis, and its phoshporylation was determined by Western blot analysis using anti-phospho-c-Jun (Ser-63) polyclonal antibody as described above. JNK protein levels in cell lysates were also measured by Western blot analysis using anti-JNK antibody to normalize sample variations.
(§3) Seventy-percent confluent cells were deprived of serum for 24 hours, followed by treatment with 1 μg/ml f- or g-adiponectin or 10 μg/ml anisomycin for indicated periods. After being rinsed with cold phosphate-buffered saline, cells were harvested using a scraper and collected by centrifugation at 700×g for 10 minutes at 4° C. The cell pellets were then homogenized in cell lysis buffer (20 mM HEPES, pH 7.9, 300 mM NaCl, 1 mM Na3VO4, 1 μg/ml leupeptin, 5 μg/ml aprotinin, 1 μg/ml pepstatin, and 1 mM phenylmethylsulfonyl fluoride) and rocked gently for 30 minutes at 4° C. The homogenates were centrifuged at 15,000×g for 5 minutes at 4° C., and the supernatants were saved as cell lysates and stored at −80° C. until use.
Using the stress-activated protein kinase/JNK assay kit, JNK activity was assessed with a fusion protein of the c-Jun NH2 terminus (amino acids 1 to 89) and glutathione S-transferase as a substrate according to the manufacture's instructions with some modifications as reported before (M. Onuma, et al., supra, 2003). Briefly, JNK was precipitated in cell lysates (250-500 μg of protein) with 2 μg of glutathione-Sepharose beads immobilized by the fusion protein. The precipitates were rinsed with the cell lysis buffer three times, followed by incubation in 50 μl of the kinase buffer containing 100 μM ATP at 30° C. for 30 minutes. The reaction was terminated by adding the SDS sample buffer. The substrate fusion protein was separated by SDS-polyacrylamide gel electrophoresis, and its phosphorylation by JNK was determined by Western blot analysis using anti-phospho-c-Jun (Ser-63) polyclonal antibody. To normalize sample variations, JNK protein levels were also determined by Western blot analysis using anti-JNK antibody.

[5] = test system: LNCaP-FGC cells; experiment: Cell proliferation with leptin and DHT; format: cell-based, human; conditions: only in the presence of DHT
[6] = test system: c-Jun; experiment: Western blot analysis of c-Jun phosphorylation in C2C12 myoblasts; format: cell-based, murine; conditions: 1.0 μg/ml
Method: as §3
Cell lysates (100 μg of protein) were electrophoresed on 10% SDS-polyacrylamide gels and transferred to polyvinylidene difluoride membranes. After being washed and blocked, the membranes were hybridized with anti-phospho-c-Jun (Ser-63 or Ser-73) polyclonal antibody that specifically detects phosphorylated c-Jun molecules. The membranes were then stripped and re-hybridized with anti-c-Jun antibody that recognizes both phosphorylated and unphosphorylated c-Jun molecules to normalize sample variations.

[7] = test system: STAT3; experiment: Electromobility shift assay (EMSA) of STAT3 DNA binding; format: cell-based, human
Method: as §3
The EMSA was performed as described previously (Y. Iwamoto, et al., J. Biol. Chem. 273:18198-18204, 1998). Cell lysates containing 10 μg of protein were subjected to the assay with ^32P-end-labeled, double-stranded oligonucleotide M67-SIE (forward: 5′[…]-3′ and reverse: 5′-[…]-3′) as a probe. The supershift assay was carried out to confirm the STAT3-DNA complex using anti-STAT3 antibody.

leptin: Recombinant human leptin purchased from R&D Systems; major adipose cytokine
[3H] thymidine incorporation (cell proliferation), cytokine alone ([1]; DU145, serum-deprived, leptin up to 12.5 μg/ml, IL-6 100 ng/ml or IGF-I 100 ng/ml, 20 hours): stimulated thymidine incorporation remarkably in a dose-dependent fashion
effect on the IGF-I stimulation of cell proliferation ([1]; DU145, 12.5 μg/ml leptin with 100 ng/ml IGF-I, 20 hours): drastic, synergistic effects
effect on the IL-6 stimulation of cell proliferation ([1]; DU145, 12.5 μg/ml leptin with 100 ng/ml IL-6, 20 hours): additive effects
[3H] thymidine incorporation (cell proliferation), cytokine alone ([2]; PC-3, serum-deprived, leptin up to 12.5 μg/ml, IL-6 100 ng/ml or IGF-I 100 ng/ml, 20 hours): stimulated thymidine incorporation remarkably in a dose-dependent fashion
effect on the IGF-I stimulation of cell proliferation ([2]; PC-3, 12.5 μg/ml leptin with 100 ng/ml IGF-I, 20 hours): drastic, synergistic effects
effect on the IL-6 stimulation of cell proliferation ([2]; PC-3, 12.5 μg/ml leptin with 100 ng/ml IL-6, 20 hours): additive effects
cell proliferation on co-treatment with leptin and IGF-I ([3]; 12.5 μg/ml leptin with 100 ng/ml IGF-I, 20 hours): did not influence
effect on the IL-6-induced inhibition of cell proliferation ([3]; 12.5 μg/ml leptin with 100 ng/ml IL-6, 20 hours): did not influence
[3H] thymidine incorporation (cell proliferation), cytokine alone ([3]; serum-deprived, leptin up to 12.5 μg/ml, IL-6 100 ng/ml or IGF-I 100 ng/ml, 20 hours): did not influence
time of peak JNK activation after addition ([4]; DU145, 12.5 μg/ml leptin): 15 min
time of return of JNK activation to the basal level ([4]; DU145, 12.5 μg/ml leptin): 45 min
JNK activity ([4]; DU145, 12.5 μg/ml leptin, up to 60 minutes): stimulated JNK activity
JNK activity ([4]; LNCaP-FGC, 12.5 μg/ml leptin, up to 60 minutes): did not influence JNK activity
time of peak JNK activation after addition ([4]; PC-3, 12.5 μg/ml leptin): 15 min
JNK activity ([4]; PC-3, 12.5 μg/ml leptin, up to 60 minutes): stimulated JNK activity
cell proliferation, leptin together with androgen (DHT) [5]: synergistically stimulate cell proliferation

B1: f-adiponectin: Recombinant human full-length (non-proteolytic) adiponectin, about 30-kDa polypeptide; lot mainly HMW form (protein, UniProt Q15848 1-244, looked up)
chain: MLLLGAVLLLLALPGHDQETTTQGPGVLLPLPKGACTGWMAGIPGHPGHNGAPGRDGRDGTPGEKGEKGDPGLIGPKGDIGETGVPGAEGPRGFPGIQGRKGEPGEGAYVYRSAFSVGLETYVTIPNMPIRFTKIFYNQQNHYDGSTGKFHCNIPGLYYFAYHITVYMKDVKVSLFKKDKAMLFTYDQYQENNVDQASGSVLLHLEVGDQVWLQVYGEGERNGLYADNDNDSTFTGFLLYHDTN
modifications: full-length
notes: Recombinant human full-length (non-proteolytic) adiponectin, about 30-kDa polypeptide; lot mainly HMW form
time of peak JNK activation after addition ([4]; DU145, PC-3, LNCaP-FGC and HepG2 cells, 1.0 μg/ml): 10 min
JNK activation ([4]; DU145, PC-3, LNCaP-FGC and HepG2 cells, 1.0 μg/ml, up to 60 minutes): further stimulated JNK activation
c-Jun phosphorylation at Ser-63 [6]: augmented c-Jun phosphorylation at Ser-63
c-Jun phosphorylation at Ser-73 [6]: stimulated Ser-73 phosphorylation
constitutive STAT3 activation (STAT3 DNA binding activity) ([7]; DU145 and HepG2 cells, 1.0 μg/ml, up to 60 minutes): inhibited constitutive STAT3 activation drastically
STAT3 activation ([7]; the other cell lines (PC-3, LNCaP-FGC, C2C12), data not shown): Neither f- nor g-adiponectin influenced STAT3 activation

From patent US20060040861A1, “Method of treating, preventing, and diagnosing prostate cancer” (priority 2004, published 2006)
